Reference: patent US11312718B2, “Formulations of (S)-3-(1-(9H-purin-6-ylamino)ethyl)-8-chloro-2-phenylisoquinolin-1(2H)-one” (Infinity Pharmaceuticals, Inc., priority 2011, dated 2022)
Counter-ions that a name gives are not always drawn. Like-named read-outs stand apart in the source and are kept apart here. Values belong to the compound of their own block, whether it stands above or below them.

Columns and labels:
[1] = Thermal stability (60° C.); conditions: for Thermal stability (60° C.): after 1 week; for polymorph Form changes by XRPD: held at 60° C. for 10 days
Protocol: Forms A, B, C, D, and E were held at 60° C. for 10 days followed by analysis by XRPD. In each case, 8 mL vials were charged with approximately 20 mg of material, with the exception of Form B for which 10 mg of material was charged. Samples equilibrated in an oven for 10 days.

[2] = Dynamic vapor sorption (DVS) / moisture sorption analysis; assay type: physicochemical; conditions: for hygroscopicity / moisture uptake at 60% RH / moisture uptake at 90% RH: DVS; for moisture uptake at 60% RH / moisture uptake at 90% RH: about 25° C.
Protocol: Compounds and polymorphs provided herein can be characterized by moisture sorption analysis. This analysis was performed using a Hiden IGAsorp Moisture Sorption instrument. Moisture sorption experiments were carried out at about 25° C. by performing an adsorption scan from about 40% to about 90% RH in steps of about 10% RH and a desorption scan from about […] to about 0% RH in steps of about −10% RH. A second adsorption scan from about 10% to about 40% RH was performed to determine the moisture uptake from a drying state to the starting humidity. Samples were allowed to equilibrate for about four hours at each point or until an asymptotic weight was reached. After the isothermal sorption scan, samples were dried for about one hour at elevated temperature (about 60° C.) to obtain the dry weight. XRPD analysis on the material following moisture sorption was performed to determine the solid form.
Dynamic vapor sorption (DVS) analysis was performed on polymorph Forms A, B, C, D, and E using the DVS instrument and parameters as described above. […] Hysteresis indicative of hemi-hydrate formation was observed.

[3] = human plasma, 37° C., 5 μM; cited from earlier work
[4] = Grinding stability (mortar and pestle); assay type: physicochemical; conditions: for Grinding (mortar & pestle): by hand, 2 and 5 min, XRPD; for Form by XRPD after grinding: after both 2 and 5 minutes of grinding by hand
Protocol: Forms A, C, D, and E were subjected to grinding experiments performed using a mortar and pestle by hand. Samples were lightly grounded for 2 minutes then analyzed by XRPD. Material was then returned to the mortar and pestle and grounded for an additional 3 minutes, for a total of 5 minutes of grinding, and re-analyzed by XRPD.

[5] = Hold in humidity chambers at 9% RH and 95% RH; assay type: physicochemical; conditions: after 1 week
[6] = Salt screen: solubility in water; assay type: physicochemical
Source text: Salts of a compound of Formula (I) were formed with L-tartaric acid, p-toluenesulfonic acid, D-glucaronic acid, ethane-1,2-disulfonic acid (EDSA), 2-naphthalenesulfonic acid (NSA), hydrochloric acid (HCl) (mono and bis), hydrobromic acid (HBr), citric acid, naphthalene-1,5-disulfonic acid (NDSA), DL-mandelic acid, fumaric acid, sulfuric acid, maleic acid, methanesulfonic acid (MSA), benzenesulfonic acid (BSA), ethanesulfonic acid (ESA), L-malic acid, phosphoric acid, and aminoethanesulfonic acid (taurine).

[7] = Stability studies of packaged polymorph Forms (temperature and humidity storage); assay type: physicochemical; conditions: HPLC, Karl Fischer, XRPD
Source text: Polymorphs Form A and Form C were subjected to stability studies where several samples of each given Form were packaged and subjected to the given temperature and humidity conditions as described in Table 10. At each timepoint, a sample for that study was opened and evaluated by HPLC for purity, Karl Fischer for moisture content, and XRPD for confirming the polymorph Form.

[8] = Drying of Form A at 70° C.; assay type: physicochemical; conditions: Drying at 70° C. for six days
Protocol: 1. Procedure from CH2Cl2 and from IPA: Form C (1 g) was slurried in five volumes of dichloromethane. After holding for 15 hours, filtration, and drying, Form A was isolated in 82% yield. Scale-up was performed on a 20 g scale with a water-wet cake of Form C to yield Form A in 92% yield. […] Slurrying dry Form C in isopropyl alcohol using a similar method also yielded Form A.

[9] = Solubility of polymorph Forms (H2O, SGF); assay type: physicochemical
[10] = Pharmacokinetics, single oral dose; assay type: in vivo; conditions: both sexes, human, plasma, healthy adult subjects, fasting, range over doses
Protocol: A randomized, double-blind, placebo-controlled, single and repeat dose study was conducted to evaluate the pharmacokinetics (PK) of a compound of Formula (I) Form C polymorph when orally administered to healthy adult male and female subjects. Subjects received a single oral dose of a compound of Formula (I) Form C polymorph under fasting conditions at a dose of 1 mg, 2 mg, 5 mg, 10 mg, 20 mg, and 30 mg. Blood samples were collected for plasma analysis pre-dose, and at 0.5, 1, 1.5, 2, 3, 4, 6, 9, 12, 16, and 24 hours.

[11] = Stability of the capsules in a container closure; assay type: physicochemical
Protocol: The stability of the capsules in a container closure was evaluated at long-term and accelerated conditions. Container closure conditions used were (i) 60-cc high density polyethylene (HDPE), wide mouth, round, white bottle; and (ii) child resistant 33-mm white plastic cap with a heat induction foil inner seal liner. The containers containing the capsules were subjected to the following conditions: (1) −20° C.±5° C.; (2) 5° C.±3° C.; (3) 25° C.±2° C., 60% RH±5% RH; (4) 40° C.±2° C., 75% RH±5% RH; (5) 25° C.±2° C., 60% RH±5% RH, open bottle; (6) 40° C.±2° C., 75% RH±5% RH, open bottle; and (7) 30° C.±2° C., 65% RH±5% RH. Samples of the capsule formulations were analyzed at certain time intervals. The API remained stable at 25° C.±2° C., 60% RH±5% RH and 40° C. 2° C., […]±5% RH for at least 6 months. The API remained stable for at least 6 month at −20° C. 5° C., 5° C. 3° C. when stored in induction-sealed HDPE bottles. The API was stable for at least 6 months at 25° C.±2° C., 60% RH±5% RH and 40° C.±2° C., 75% RH±5% RH in open HDPE bottles.

[12] = Pharmacokinetics, repeat oral dose; assay type: in vivo; conditions: both sexes, human, plasma; Day 14; repeat oral dosing 1, 2, 5, 10 mg (QD Days 1 and 14, BID Days 2 through 13); range over doses
Protocol: Repeat oral dose administration of a compound of Formula (I) Form C polymorph was administered once per day (QD) in the morning on Days 1 and 14 and twice daily (BID) on Days 2 through 13. Administration of the compound occurred after an overnight fast on Days 1 and 14. Blood samples were collected for plasma analysis on Day 14 following 1, 2, 5 and 10 mg repeat dosing. Blood samples were collected on Day 14 prior to dosing and at 0.5, 1, 1.5, 2, 3, 4, 6, 9, 12, 16 and 24 hours after administration to determine plasma concentrations of the compound of Formula (I) Form C polymorph. Doses of 1 mg, 2 mg, 5 mg, and 10 mg gave a Cmax value range of greater than 10 ng/mL to less than 1,000 ng/mL in a dose dependent manner. In addition doses of 1 mg, 2 mg, 5 mg, and 10 mg gave an AUCtau,ss value range of greater than 100 ng*h/mL to less than 2,500 ng*h/mL, in a dose dependent manner. For the BID regimens, the AUC over a 24 hour interval was obtained by multiplying AUCtau,ss by 2.

[13] = PBS at pH 7.4, 37° C., 24 hours, 5 μM; cited from earlier work

SMILES: CCCOc1cc(N)ccc1C(=O)OCCN(CC)CC [propoxycaine]
- plasma stability [3]: low plasma stability

SMILES: CC(C)[N+](C)(CCOC(=O)C1c2ccccc2Oc2ccccc21)C(C)C [propantheline]
- plasma stability [3]: intermediate plasma stability

SMILES: C[C@H](Nc1ncnc2[nH]cnc12)c1cc2cccc(Cl)c2c(=O)n1-c1ccccc1 [Form A, (S)-3-(1-(9H-purin-6-ylamino)ethyl)-8-chloro-2-phenylisoquinolin-1(2H)-one]
- Thermal stability (60° C.) [1]: stable after 1
- polymorph Form changes by XRPD [1]: No polymorph Form changes were observed
- changes in Form [5]: no changes in Form
- Solubility in water ([6]; listed as Free Form A): 30 µg/mL
- instability of the polymorphic Form ([7]; Double LDPE bags in fiberboard drum, 40° C. ± 2° C./75% RH ± 5% RH, 1, 2, 3, 6, and 12 months): no indication of instability of the polymorphic Form
- degradation in chemical or chiral purity [8]: no degradation in chemical or chiral purity
- Moisture Sorption (wt % water) ([2]; 60% RH, listed as Free Form A): 60% RH: 0.7 wt % water
- Moisture Sorption (wt % water) ([2]; 90% RH, listed as Free Form A): 90% RH: 2.6 wt % water
- DVS ([2]; @ 60% RH): 0.7% @ 60% RH
- DVS ([2]; @ 90% RH): 2.6% @ 90% RH
- hygroscopicity [2]: slightly hygroscopic
- moisture uptake at 60% RH ([2]; 60% RH): 0.7 wt %
- moisture uptake at 90% RH ([2]; 90% RH): 2.6 wt %
- Solubility (mg/mL) ([9]; H2O): 0.030 (H2O) mg/mL
- Solubility (mg/mL) ([9]; SGF): 21.800 (SGF) mg/mL
- Form by XRPD after grinding [4]: remain consistent
- Grinding (mortar & pestle) [4]: remained Form

SMILES: C[C@H](Nc1ncnc2[nH]cnc12)c1cc2cccc(Cl)c2c(=O)n1-c1ccccc1 [EDSA]
- Solubility in water [6]: 9400 µg/mL
- Moisture Sorption (wt % water) ([2]; 60% RH): 60% RH: 7.5 wt % water
- Moisture Sorption (wt % water) ([2]; 90% RH): 90% RH: 28.1 wt % water

SMILES: O=C(O)CCCc1ccc(N(CCCl)CCCl)cc1 [chlorambucil]
- chemical stability [13]: largely hydrolyzed

SMILES: C[C@H](Nc1ncnc2[nH]cnc12)c1cc2cccc(Cl)c2c(=O)n1-c1ccccc1 [Bis HCL]
- Solubility in water [6]: 11800 µg/mL
- Moisture Sorption (wt % water) ([2]; 60% RH): 60% RH: 9.9 wt % water
- Moisture Sorption (wt % water) ([2]; 90% RH): 90% RH: 12.3 wt % water

Now from value to compound, other results behind:

- Thermal stability (60° C.) [1]: stable after 1
- polymorph Form changes by XRPD [1]: No polymorph Form changes were observed
- DVS ([2]; @ 60% RH): 1.0% @ 60% RH
- DVS ([2]; @ 90% RH): 1.7% @ 90% RH
- hygroscopicity [2]: slightly hygroscopic
- moisture uptake at 60% RH ([2]; 60% RH): 1.0 wt %
- moisture uptake at 90% RH ([2]; 90% RH): 1.7 wt %
SMILES: C[C@H](Nc1ncnc2[nH]cnc12)c1cc2cccc(Cl)c2c(=O)n1-c1ccccc1 [Form B, (S)-3-(1-(9H-purin-6-ylamino)ethyl)-8-chloro-2-phenylisoquinolin-1(2H)-one]

- Thermal stability (60° C.) [1]: stable after 1
- polymorph Form changes by XRPD [1]: No polymorph Form changes were observed
- DVS ([2]; @ 60% RH): 0.4% @ 60% RH
- DVS ([2]; @ 90% RH): 1.7% @ 90% RH
- hygroscopicity [2]: slightly hygroscopic
- moisture uptake at 60% RH ([2]; 60% RH): 0.4 wt %
- moisture uptake at 90% RH ([2]; 90% RH): 1.7 wt %
- Grinding (mortar & pestle) [4]: amorphous
SMILES: C[C@H](Nc1ncnc2[nH]cnc12)c1cc2cccc(Cl)c2c(=O)n1-c1ccccc1 [Form D, (S)-3-(1-(9H-purin-6-ylamino)ethyl)-8-chloro-2-phenylisoquinolin-1(2H)-one]

- Thermal stability (60° C.) [1]: stable after 1
- polymorph Form changes by XRPD [1]: No polymorph Form changes were observed
- changes in Form [5]: no changes in Form
- Cmax ([10]; single oral dose 1, 2, 5, 10, 20, 30 mg): 10 to 1500 ng/mL
- half-life ([10]; single oral dose 1 to 30 mg): 3 to 10 h
- AUC(0-t) ([10]; single oral dose 1 to 30 mg, read-out: AUC0-24): 100 to 4000 ng·h/mL
- DVS ([2]; @ 60% RH): 4.2% @ 60% RH
- DVS ([2]; @ 90% RH): 4.9% @ 90% RH
- hygroscopicity [2]: moderately hygroscopic
- moisture uptake at 60% RH ([2]; 60% RH): 4.2%
- moisture uptake at 90% RH ([2]; 90% RH): 4.9%
- Solubility (mg/mL) ([9]; H2O): 0.001 (H2O) mg/mL
- Solubility (mg/mL) ([9]; SGF): 9.133 (SGF) mg/mL
- time the API remained stable ([11]; capsules in HDPE bottle, 25° C.±2° C., 60% RH±5% RH and 40° C. 2° C., 45% RH±5% RH): at least 6 months
- time the API was stable ([11]; capsules, 25° C.±2° C., 60% RH±5% RH and 40° C.±2° C., 75% RH±5% RH, open HDPE bottles): at least 6 months
- time the API remained stable ([11]; capsules, −20° C. 5° C., 5° C. 3° C., induction-sealed HDPE bottles): at least 6 month
- Form by XRPD after grinding [4]: remain consistent
- Grinding (mortar & pestle) [4]: remained Form
- AUC [12]: 100 to 2500 ng·h/mL
- Cmax at 14 days [12]: 10 to 1000 ng/mL
SMILES: C[C@H](Nc1ncnc2[nH]cnc12)c1cc2cccc(Cl)c2c(=O)n1-c1ccccc1 [Form C, (S)-3-(1-(9H-purin-6-ylamino)ethyl)-8-chloro-2-phenylisoquinolin-1(2H)-one]
- instability of the polymorphic Form ([7]; LDPE bags, foil or Mylar bag, HDPE drum, 5° C./60% RH, 25° C./60% RH, 40° C./75% RH, up to 9 months): no indication of instability of the polymorphic Form

- Solubility in water [6]: 50 µg/mL
- Moisture Sorption (wt % water) ([2]; 60% RH): 60% RH: 0.3 wt % water
- Moisture Sorption (wt % water) ([2]; 90% RH): 90% RH: 0.7 wt % water
SMILES: C[C@H](Nc1ncnc2[nH]cnc12)c1cc2cccc(Cl)c2c(=O)n1-c1ccccc1 [NSA]

- Solubility in water [6]: 300 µg/mL
SMILES: C[C@H](Nc1ncnc2[nH]cnc12)c1cc2cccc(Cl)c2c(=O)n1-c1ccccc1 [NDSA]
